Experimental data published in patent publication US6864056B1 (priority 2000, dated 2005).

Tested on: dAU6 NH3 oligonucleotide substrate
Assay type: biochemical

## gelonin
  level of activity (fluorescence normalized with negative control, FIG. 3): highest level of activity
